Laboratory results from ChEMBL document CHEMBL1201862, “PubChem BioAssay data set” (2004).
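Results reflect a 48-hour exposure of cells in 96-well plates to compound at five concentrations. The concentration for 50% growth inhibition is given as GI50.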 Active and inactive are the calls of the source. No stated cut-off is given here; in the data, active = GI50 up to about 1.1 µM and inactive = higher. Residues, ends and D or L forms follow the SMILES beside them. *: point of attachment. Boc = CC(C)(C)OC(=O)*

Experiments:
Experiment in all cases: NCI anticancer screen, dose series, 48 h
[1] = tested on: A498
[2] = tested on: CAKI-1
[3] = tested on: HCT-116
[4] = tested on: HCT-15
[5] = tested on: HOP-62
[6] = tested on: HOP-92
[7] = tested on: MCF7
[8] = tested on: NCI-H522
[9] = tested on: OVCAR-3
[10] = tested on: OVCAR-4
[11] = tested on: OVCAR-5
[12] = tested on: OVCAR-8
[13] = tested on: RXF 393
[14] = tested on: SK-MEL-2
[15] = tested on: SK-MEL-5
[16] = tested on: SN12C
[17] = tested on: UACC-62
[18] = tested on: EKVX
[19] = tested on: IGROV-1
[20] = tested on: SNB-75

SMILES | GI50 [1] | GI50 [2] | GI50 [3] | GI50 [4] [µM] | GI50 [5] | GI50 [6] | GI50 [7] | GI50 [8] | GI50 [9] | GI50 [10] | GI50 [11] | GI50 [12] | GI50 [13] | GI50 [14] | GI50 [15] | GI50 [16] | GI50 [17] | GI50 [18] | GI50 [19] | GI50 [20]
CC(=O)c1cc2sc3ccccc3c2[nH]1 | > 100 µM (inactive) | > 100 µM (inactive) | > 100 µM (inactive) | > 100 | > 100 µM (inactive) | > 100 µM (inactive) | > 100 µM (inactive) | > 100 µM (inactive) | > 100 µM (inactive) | > 100 µM (inactive) | > 100 µM (inactive) | 61.2 µM (inactive) | > 100 µM (inactive) | > 100 µM (inactive) | > 100 µM (inactive) | > 100 µM (inactive) | 26.7 µM (inactive) | – | – | –
O=C1c2ccccc2C(=O)c2c1sc1nc3ccccc3n21 | 10.7 µM (inactive) | 1.99 µM (inactive) | 1.7 µM (inactive) | 1.36 | – | 10.4 µM (inactive) | 1.86 µM (inactive) | – | 2.86 µM (inactive) | – | 2.45 µM (inactive) | 1.9 µM (inactive) | 1.79 µM (inactive) | – | 16.5 µM (inactive) | 1.52 µM (inactive) | 1.87 µM (inactive) | 2.4 µM (inactive) | 2.44 µM (inactive) | 13.1 µM (inactive)
COC(=O)C1(OC(=O)Sc2ccccc2)CCN(C)CC1 | 21.8 µM (inactive) | 4.95 µM (inactive) | 14.9 µM (inactive) | 34.9 | 32.1 µM (inactive) | – | > 52 µM (inactive) | 16.2 µM (inactive) | 11 µM (inactive) | 23.2 µM (inactive) | 35.3 µM (inactive) | 16.7 µM (inactive) | 14.3 µM (inactive) | 58.3 µM (inactive) | 22.6 µM (inactive) | 3.9 µM (inactive) | 21.3 µM (inactive) | 9.1 µM (inactive) | 4.75 µM (inactive) | 16.8 µM (inactive)
CC(C)=CC(O)C(C(O)CCC1(C)OCCO1)S(=O)(=O)c1ccccc1 (stereo not drawn) | > 100 µM (inactive) | > 100 µM (inactive) | > 100 µM (inactive) | > 100 | > 100 µM (inactive) | – | > 100 µM (inactive) | > 100 µM (inactive) | > 100 µM (inactive) | > 100 µM (inactive) | > 100 µM (inactive) | > 100 µM (inactive) | > 100 µM (inactive) | > 100 µM (inactive) | – | > 100 µM (inactive) | – | > 100 µM (inactive) | > 100 µM (inactive) | > 100 µM (inactive)
COc1ccc(/C=C2/SC(c3ccccc3)N(NC(=O)CCCCCCCCC(=O)NN3C(=O)/C(=C\c4ccc(OC)c(OC)c4)SC3c3ccccc3)C2=O)cc1OC (stereo not drawn) | 57.4 µM (inactive) | 53.6 µM (inactive) | 29.1 µM (inactive) | 55.2 | 35 µM (inactive) | 17.3 µM (inactive) | 34 µM (inactive) | – | > 100 µM (inactive) | 76.7 µM (inactive) | > 100 µM (inactive) | 67.8 µM (inactive) | 58.5 µM (inactive) | 52.7 µM (inactive) | – | > 100 µM (inactive) | 29 µM (inactive) | 17.1 µM (inactive) | 1.03 µM (active) | 35.2 µM (inactive)
OCC1COc2cc(Cl)c(Cl)cc2O1 (stereo not drawn) | > 10 µM (inactive) | > 10 µM (inactive) | > 10 µM (inactive) | > 10 | > 10 µM (inactive) | – | > 10 µM (inactive) | 1.42 µM (inactive) | > 10 µM (inactive) | > 10 µM (inactive) | > 10 µM (inactive) | > 10 µM (inactive) | > 10 µM (inactive) | > 10 µM (inactive) | > 10 µM (inactive) | > 10 µM (inactive) | > 10 µM (inactive) | > 10 µM (inactive) | > 10 µM (inactive) | > 10 µM (inactive)
CN(C)CCNC(=O)c1cccc2cc3cc(O)ccc3nc12 | 0.782 µM (active) | < 0.0499 µM (active) | 0.558 µM (active) | 1.23 | 1.06 µM (active) | 0.792 µM (active) | 0.473 µM (active) | – | 1.13 µM (inactive) | 2 µM (inactive) | 1.46 µM (inactive) | 0.796 µM (active) | 1.11 µM (active) | 2.14 µM (inactive) | 1.23 µM (inactive) | 1.1 µM (active) | 1.33 µM (inactive) | 1.95 µM (inactive) | 1.37 µM (inactive) | 1.93 µM (inactive)
CC(C)(C)OC(=O)NC(Cc1ccccc1)C(=O)N[C@H]1c2ccsc2/C(=N/O)[C@H]1O (stereo partly drawn) | > 100 µM (inactive) | > 100 µM (inactive) | > 100 µM (inactive) | > 100 | > 100 µM (inactive) | > 100 µM (inactive) | > 100 µM (inactive) | – | > 100 µM (inactive) | 35.2 µM (inactive) | > 100 µM (inactive) | > 100 µM (inactive) | > 100 µM (inactive) | > 100 µM (inactive) | > 100 µM (inactive) | > 100 µM (inactive) | > 100 µM (inactive) | > 100 µM (inactive) | > 100 µM (inactive) | –
CC(C)C(=O)Nc1cc(C(F)(F)F)ccc1[N+](=O)[O-] | > 100 µM (inactive) | > 100 µM (inactive) | > 100 µM (inactive) | > 100 | > 100 µM (inactive) | > 100 µM (inactive) | > 100 µM (inactive) | > 100 µM (inactive) | > 100 µM (inactive) | > 100 µM (inactive) | > 100 µM (inactive) | > 100 µM (inactive) | > 100 µM (inactive) | > 100 µM (inactive) | > 100 µM (inactive) | > 100 µM (inactive) | > 100 µM (inactive) | > 100 µM (inactive) | > 100 µM (inactive) | –
Cc1ccc2nc(NC(=O)/C(Cc3nc4ccc(Cl)cc4nc3O)=N\NC(C)(C)C)sc2c1 | > 100 µM (inactive) | 41.8 µM (inactive) | > 100 µM (inactive) | 90.6 | – | > 100 µM (inactive) | > 100 µM (inactive) | – | > 100 µM (inactive) | 12.5 µM (inactive) | > 100 µM (inactive) | > 100 µM (inactive) | > 100 µM (inactive) | > 100 µM (inactive) | > 10 µM (inactive) | > 100 µM (inactive) | > 100 µM (inactive) | – | – | 15.5 µM (inactive)
N#CC(=S)Nc1ccc(F)cc1 | 32.7 µM (inactive) | 63.8 µM (inactive) | 86.1 µM (inactive) | 88.7 | > 100 µM (inactive) | 19.4 µM (inactive) | 64.7 µM (inactive) | – | 56.4 µM (inactive) | 28.6 µM (inactive) | 83.9 µM (inactive) | 96.2 µM (inactive) | 42.1 µM (inactive) | > 100 µM (inactive) | 17 µM (inactive) | > 100 µM (inactive) | 40.2 µM (inactive) | 72.3 µM (inactive) | 32.1 µM (inactive) | > 100 µM (inactive)
S=C(N/N=C/c1ccccn1)N1CCCCCC1 | < 0.0391 µM (active) | < 0.0423 µM (active) | < 0.01 µM (active) | < 0.01 | < 0.01 µM (active) | 0.0832 µM (active) | < 0.01 µM (active) | < 0.0267 µM (active) | < 0.01 µM (active) | – | < 0.0458 µM (active) | < 0.01 µM (active) | – | 0.0659 µM (active) | < 0.0141 µM (active) | < 0.0192 µM (active) | < 0.0245 µM (active) | < 0.0294 µM (active) | < 0.01 µM (active) | 0.0783 µM (active)
CC1CCC2C(C(=O)O[C@H]3C4CCO[C@@H](OC5OC(CO)C(O)C(O)C5O)C4[C@@]4(CO)O[C@@H]34)=CO[C@@H](OC3OC(CO)C(O)C(O)C3O)C12 (stereo partly drawn) | > 10 µM (inactive) | – | > 10 µM (inactive) | > 10 | > 10 µM (inactive) | > 10 µM (inactive) | > 10 µM (inactive) | – | > 10 µM (inactive) | – | > 10 µM (inactive) | > 10 µM (inactive) | > 10 µM (inactive) | > 10 µM (inactive) | > 10 µM (inactive) | > 10 µM (inactive) | > 10 µM (inactive) | > 10 µM (inactive) | > 10 µM (inactive) | > 10 µM (inactive)
CC(NC(=O)C(NC(=O)OC(C)(C)C)C(C)C)C(=O)N1CCCC1C(=O)NCC(=O)NC(C(=O)NCC(=O)O)C(C)C (stereo not drawn) (Boc-VAPGVG-OH; configuration not given here) | > 100 µM (inactive) | > 100 µM (inactive) | > 100 µM (inactive) | > 100 | > 100 µM (inactive) | 29.2 µM (inactive) | > 100 µM (inactive) | > 100 µM (inactive) | > 100 µM (inactive) | > 100 µM (inactive) | > 100 µM (inactive) | > 100 µM (inactive) | – | > 100 µM (inactive) | – | > 100 µM (inactive) | > 100 µM (inactive) | > 100 µM (inactive) | > 100 µM (inactive) | 29.2 µM (inactive)
COc1cc(/C=C/C(=O)CC(=O)/C=C/c2ccc(O)c(OC)c2)ccc1O [CURCUMIN] | 16 µM (inactive) | 11.9 µM (inactive) | 2.92 µM (inactive) | 4.12 | 3.63 µM (inactive) | – | 3.34 µM (inactive) | 5.33 µM (inactive) | 6.64 µM (inactive) | 9.33 µM (inactive) | 16.6 µM (inactive) | 7.35 µM (inactive) | 3 µM (inactive) | 16.5 µM (inactive) | 8.81 µM (inactive) | 8.41 µM (inactive) | 6.49 µM (inactive) | – | 7.89 µM (inactive) | 6.84 µM (inactive)
